# From ChEMBL document CHEMBL1671861, “Preclinical evaluation of 1H-benzylindole derivatives as novel human immunodeficiency virus integrase strand transfer inhibitors” (Antimicrob Agents Chemother, 2008)
# Activity calls are given as the source filed them. No cut-off for these calls is given here.
# Columns and labels:
# [1] = system: Human immunodeficiency virus 1; assay: Antiviral activity against Human immunodeficiency virus 1 3B infected in human MT4 cells assessed as inhibition of viral replication; assay type: functional, organism-based
# [2] = Selectivity index, ratio of CC50 for human MT4 cells to EC50 for Human immunodeficiency virus 1 3B; assay type: toxicity, cell-based; details: read-out: Ratio CC50/EC50
# [3] = biological target: T1, Human immunodeficiency virus type 1 integrase (Human immunodeficiency virus 1, UniProt Q7ZJM1); assay: Inhibition of Human immunodeficiency virus 1 integrase
# [4] = biological target: T1, Human immunodeficiency virus type 1 integrase; assay: Inhibition of Human immunodeficiency virus 1 integrase strand transfer activity
# [5] = Cytotoxicity against human MT4 cells by MTT assay; assay type: cell-based
# [6] = system: Human immunodeficiency virus 2; assay: Antiretroviral activity against Human immunodeficiency virus 2 ROD infected in human MT4 cells assessed as inhibition of virus-induced cytopathic effect by MTT assay; assay type: functional, organism-based; details: Human immunodeficiency virus 2, ISOLATE ROD
# [7] = system: Human immunodeficiency virus 2; assay: Antiretroviral activity against Human immunodeficiency virus 2 EHO infected in human MT4 cells assessed as inhibition of virus-induced cytopathic effect by MTT assay; assay type: functional, organism-based
# [8] = system: Simian immunodeficiency virus; assay: Antiretroviral activity against Simian immunodeficiency virus MAC 251 infected in human MT4 cells assessed as inhibition of virus-induced cytopathic effect by MTT assay; assay type: functional, organism-based; details: MAC 251, MT4
# [9] = system: Human immunodeficiency virus 1; assay: Antiretroviral activity against Human immunodeficiency virus 1 3B infected in human MT4 cells assessed as inhibition of virus-induced cytopathic effect by MTT assay; assay type: functional, organism-based
# [10] = system: Human immunodeficiency virus 1; assay: Antiretroviral activity against Human immunodeficiency virus 1 NL4.3 infected in human MT4 cells assessed as inhibition of virus-induced cytopathic effect by MTT assay; assay type: functional, organism-based; details: Human immunodeficiency virus 1, NL4.3, MT4
# [11] = system: Human immunodeficiency virus 1; assay: Antiviral activity against Reverse transcriptase inhibitor-resistant Human immunodeficiency virus 1 infected in human MT4 cells assessed as inhibition of virus-induced cytopathic effect by MTT assay; assay type: functional, organism-based; details: Human immunodeficiency virus 1, MT4
# [12] = system: Human immunodeficiency virus 1; assay: Antiviral activity against non nucleoside reverse transcriptase inhibitor-resistant Human immunodeficiency virus 1 infected in human MT4 cells assessed as inhibition of virus-induced cytopathic effect by MTT assay; assay type: functional, organism-based; details: Human immunodeficiency virus 1, MT4
# [13] = system: Human immunodeficiency virus 1; assay: Antiviral activity against Protease inhibitor-resistant Human immunodeficiency virus 1 infected in human MT4 cells assessed as inhibition of virus-induced cytopathic effect by MTT assay; assay type: functional, organism-based; details: Human immunodeficiency virus 1, MT4
# [14] = system: Human immunodeficiency virus 1; assay: Ratio of EC50 for Human immunodeficiency virus 1 3B after 70 passages to EC50 for wild-type Human immunodeficiency virus 1 3B; assay type: functional
# [15] = system: Human immunodeficiency virus 1; assay: Antiviral activity against X4 tropic Human immunodeficiency virus 1 3B infected in PMBC; assay type: functional, organism-based
# [16] = system: Human immunodeficiency virus 1; assay: Antiviral activity against R5 tropic Human immunodeficiency virus 1 BAL infected in PMBC; assay type: functional, organism-based
# [17] = system: Human immunodeficiency virus 1; assay: Antiviral activity against Human immunodeficiency virus 1 during lentiviral transduction process assessed as inhibition of early cDNA synthesis by Lentiviral vector transduction assay; assay type: functional, organism-based
# [18] = system: Human immunodeficiency virus 1; assay: Antiviral activity against Human immunodeficiency virus 1 infected in 293T cells assessed as inhibition of early cDNA synthesis by Lentiviral vector transduction assay; assay type: functional, organism-based
# [19] = system: Human immunodeficiency virus 1; assay: Antiviral activity against Human immunodeficiency virus 1 infected in 293T cells assessed as integrated proximal DNA by Q-PCR; assay type: functional, organism-based
# [20] = system: Human immunodeficiency virus 1; assay: Antiviral activity against Human immunodeficiency virus 1 infected in 293T cells assessed as increase in amount of 2-LTR circles by Q-PCR in presence of 12.2 uM CHI/1043; assay type: functional, organism-based
# [21] = Intrinsic clearance in human liver microsome; assay type: ADME; details: liver microsomes
# [22] = Apparent permeability from apical to basolateral side of human Caco2 cells; assay type: ADME, cell-based; details: Caco-2
# T1 sequence (Q7ZJM1 whole entry): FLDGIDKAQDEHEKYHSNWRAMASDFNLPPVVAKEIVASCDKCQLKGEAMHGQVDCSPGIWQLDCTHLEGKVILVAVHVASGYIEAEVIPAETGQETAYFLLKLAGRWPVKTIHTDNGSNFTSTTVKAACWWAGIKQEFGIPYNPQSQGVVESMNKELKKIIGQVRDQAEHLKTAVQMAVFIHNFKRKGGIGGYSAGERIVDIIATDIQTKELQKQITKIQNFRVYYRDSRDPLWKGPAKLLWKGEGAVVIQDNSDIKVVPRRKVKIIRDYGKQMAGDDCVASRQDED
smiles,measurement,setting,value
Cc1nnc(C(=O)NC(C)(C)c2nc(C(=O)NCc3ccc(F)cc3)c(O)c(=O)n2C)o1,EC50,[1],0.0014 µM
CCOC(=O)/C(O)=C/C(=O)c1cn(Cc2ccc(F)cc2)c2ccc(OC)cc12,selectivity ratio,[2],11
O=C(NCc1ccc(F)cc1)c1nc(N2CCCCS2(=O)=O)c2cccnc2c1O,IC50,[3],0.0023 µM
same,IC50,[4],0.007 µM
same,EC50,[1],0.0049 µM
same,CC50,[5],2.25 µM
same,selectivity ratio,[2],460
COc1cc2c(cc1Cc1cccc(Cl)c1F)c(=O)c(C(=O)O)cn2[C@H](CO)C(C)C,EC50,[1],0.00083 µM
COc1ccc(OC)c2c1c(C(=O)/C=C(\O)C(=O)O)cn2Cc1ccc(F)cc1,selectivity ratio,[2],100
O=C1Nc2ccc(Cl)cc2[C@@](C#CC2CC2)(C(F)(F)F)O1 [EFAVIRENZ],EC50,[6],> 31.7 µM
same,EC50,[7],> 31.7 µM
same,EC50,[8],> 31.7 µM
Cc1c(O)cccc1C(=O)N[C@@H](CSc1ccccc1)[C@H](O)CN1C[C@H]2CCCC[C@H]2C[C@H]1C(=O)NC(C)(C)C,EC50,[9],0.028 µM
same,EC50,[10],0.023 µM
same,EC50,[6],0.05 µM
same,EC50,[7],0.049 µM
same,EC50,[8],0.05 µM
same,EC50,[11],0.029 µM
same,EC50,[12],0.035 µM
same,EC50,[13],0.17 µM
O=C(O)/C(O)=C/C(=O)c1cn(Cc2ccccc2)c2ccccc12,IC50,[3],0.86 µM
same,IC50,[4],2.33 µM
same,EC50,[1],8.35 µM
same,CC50,[5],64.1 µM
same,selectivity ratio,[2],8
CCOC(=O)/C(O)=C/C(=O)c1cn(Cc2ccc(F)cc2)c2c(OC)ccc(OC)c12,selectivity ratio,[2],20
CCOC(=O)/C(O)=C/C(=O)c1cn(Cc2ccc(F)cc2)c2c(OC)cccc12,selectivity ratio,[2],1
COc1ccc2c(C(=O)/C=C(\O)C(=O)O)cn(Cc3ccc(F)cc3)c2c1,selectivity ratio,[2],8
Cc1cn([C@H]2C[C@H](N=[N+]=[N-])[C@@H](CO)O2)c(=O)[nH]c1=O [ZIDOVUDINE],EC50,[9],0.027 µM
same,EC50,[10],0.021 µM
same,EC50,[6],0.067 µM
same,EC50,[7],0.056 µM
same,EC50,[8],0.011 µM
same,EC50,[11],0.2 µM
same,EC50,[12],0.02 µM
same,EC50,[13],0.026 µM
COc1ccc2c(c1)c(C(=O)/C=C(\O)C(=O)O)cn2Cc1ccc(F)cc1,selectivity ratio,[2],12
CCOC(=O)/C(O)=C/C(=O)c1cn(Cc2ccc(F)cc2)c2cccc(OC)c12,selectivity ratio,[2],24
CCOC(=O)/C(O)=C/C(=O)c1cn(Cc2ccc(F)cc2)c2cc(OC)ccc12,selectivity ratio,[2],< 1
O=C(O)C(=O)CC(=O)c1cc(OCc2ccccc2)cc(OCc2ccccc2)c1,EC50,[1],12.4 µM
same,CC50,[5],62 µM
same,selectivity ratio,[2],5
same,EC50,[9],12.4 µM
same,EC50,[10],24.5 µM
same,EC50,[6],62.1 µM
same,EC50,[8],22.6 µM
same,EC50,[11],7.2 µM
same,EC50,[12],19.3 µM
same,EC50,[13],7.4 µM
COc1cccc2c(C(=O)/C=C(\O)C(=O)O)cn(Cc3ccc(F)cc3)c12,selectivity ratio,[2],12
COc1cccc2c1c(C(=O)/C=C(\O)C(=O)O)cn2Cc1ccc(F)cc1,IC50,[3],0.11 µM
same,EC50,[1],0.6 µM
same,selectivity ratio,[2],69.8
same,EC50,[9],0.6 µM
same,EC50,[10],0.73 µM
same,EC50,[6],2.11 µM
same,EC50,[7],1.76 µM
same,EC50,[8],4.76 µM
same,Ratio EC50,[14],>40
same,EC50,[15],0.3 µM
same,EC50,[16],0.3 µM
same,EC50,[11],0.86 µM
same,EC50,[12],0.84 µM
same,EC50,[13],0.68 µM
same,inhibition,[17],inactive
same,inhibition,[18],Active
same,inhibition,[19],inactive
same,inhibition,[20],inactive
same,microsomal CLint,[21],11 µL/min/mg
same,Papp A→B,[22],5.5 ×10⁻⁶ cm/s
